Laboratory results reported in US20240058464A1 (Fortis Therapeutics, Inc., priority 2021, published 2024).

Legend:
CD46 expression [1] = assay: CD46 expression by RNA-sequencing in unpaired pre-treatment and post-treatment tumor biopsies; assay type: in vivo, human; conditions: for CD46 expression Post: post-treatment biopsies
CD46 expression [2] = assay: CD46 expression by RNA-sequencing in paired tumor biopsies before and after therapy; conditions: for CD46 expression diff (post minus pre) / Percent Change in CD46 expression / CD46 expression, Post-Treatment Biopsy: paired biopsies; for CD46 expression, Post-Treatment Biopsy: RNA-seq log2-transformed counts;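 on all read-outs here: FFPE human tumor biopsies, exome-capture RNA-seq, reads aligned to GRCh37, counts normalized for GC content, length and depth, summed per gene, log2-transformed, samples paired before versus after therapy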
[3] = Breast Cancer, Post minus Pre, unpaired biopsies, log2-transformed counts
[4] = Breast Cancer, post- vs pre-treatment unpaired biopsies
[5] = Breast Cancer, unpaired, RNA-seq log2-transformed normalized counts
[6] = Colorectal Cancer, Post minus Pre, unpaired biopsies, log2-transformed counts
[7] = Colorectal Cancer, post- vs pre-treatment unpaired biopsies
[8] = Colorectal Cancer, unpaired, RNA-seq log2-transformed normalized counts
[9] = Pancreatic Cancer, post minus pre, unpaired biopsies
[10] = Pancreatic Cancer, post vs pre, unpaired biopsies
[11] = Pancreatic Cancer, log2-transformed RNA-seq counts

| SMILES | CD46 expression diff (CD46 expression [1]; [3]) | CD46 expression Percentage change (CD46 expression [1]; [4]) | CD46 expression Post (CD46 expression [1]; [5]) | CD46 expression diff (post minus pre) (CD46 expression [2]; Breast Cancer) | Percent Change in CD46 expression (CD46 expression [2]; Breast Cancer) | CD46 expression, Post-Treatment Biopsy (CD46 expression [2]; Breast Cancer) | CD46 expression diff (CD46 expression [1]; [6]) | CD46 expression Percentage change (CD46 expression [1]; [7]) | CD46 expression Post (CD46 expression [1]; [8]) | CD46 expression diff (CD46 expression [1]; [9]) | CD46 expression Percentage change (CD46 expression [1]; [10]) | CD46 expression Post (CD46 expression [1]; [11]) | CD46 expression diff (post minus pre) (CD46 expression [2]; Colorectal Cancer) | Percent Change in CD46 expression (CD46 expression [2]; Colorectal Cancer) | CD46 expression, Post-Treatment Biopsy (CD46 expression [2]; Colorectal Cancer) | CD46 expression diff (post minus pre) (CD46 expression [2]; Pancreatic Cancer) | Percent Change in CD46 expression (CD46 expression [2]; Pancreatic Cancer) | CD46 expression, Post-Treatment Biopsy (CD46 expression [2]; Pancreatic Cancer) | other results |
| --- | --- | --- | --- | --- | --- | --- | --- | --- | --- | --- | --- | --- | --- | --- | --- | --- | --- | --- | --- |
| Cc1nc(NC(=O)N2CCC[C@H]2C(N)=O)sc1-c1ccnc(C(C)(C)C(F)(F)F)c1 [alpelisib] | 0.13 | 2.0% | 6.67 | −0.01 | −0.1% | 6.57 |  |  |  |  |  |  |  |  |  |  |  |  |  |
| C=C1C[C@@H]2CC[C@@]34C[C@H]5O[C@H]6[C@@H](O3)[C@H]3O[C@H](CC[C@@H]3O[C@H]6[C@H]5O4)CC(=O)C[C@@H]3[C@@H](OC)[C@@H](C[C@H](O)CN)O[C@H]3C[C@H]3O[C@@H](CC[C@@H]1O2)C[C@@H](C)C3=C [eribulin] | 0.11 | 1.8% | 6.20 | −0.54 | −8.4% | 5.92 |  |  |  |  |  |  |  |  |  |  |  |  |  |
| CCc1c2c(nc3ccc(OC(=O)N4CCC(N5CCCCC5)CC4)cc13)-c1cc3c(c(=O)n1C2)COC(=O)[C@]3(O)CC [irinotecan] |  |  |  |  |  |  | 0.16 | 2.5% | 6.54 | −0.14 | −2.5% | 5.76 | 0.16 | 2.5% | 6.48 | −0.01 | −0.1% | 5.93 | CD46 expression diff (CD46 expression [1]; Biliary Cancer, post minus pre, unpaired biopsies): −0.14; CD46 expression Percentage change (CD46 expression [1]; Biliary Cancer, post vs pre, unpaired biopsies): −2.3%; CD46 expression Post (CD46 expression [1]; Biliary Cancer, log2-transformed RNA-seq counts): 5.88; CD46 expression after treatment vs pre-treatment (CD46 expression [1]; colorectal cancer, unpaired biopsies, FIG. 5): significantly higher |
| CC(O)(CS(=O)(=O)c1ccc(F)cc1)C(=O)Nc1ccc(C#N)c(C(F)(F)F)c1 (stereo not shown) [bicalutamide] |  |  |  |  |  |  |  |  |  |  |  |  |  |  |  |  |  |  | CD46 expression diff (CD46 expression [1]; Prostate Cancer, Post minus Pre, unpaired biopsies, log2-transformed counts): −0.06; CD46 expression Percentage change (CD46 expression [1]; Prostate Cancer, post- vs pre-treatment unpaired biopsies): −0.9%; CD46 expression diff (post minus pre) (CD46 expression [2]; Prostate Cancer): −0.24; Percent Change in CD46 expression (CD46 expression [2]; Prostate Cancer): −3.8%; CD46 expression, Post-Treatment Biopsy (CD46 expression [2]; Prostate Cancer): 6.08 |
| O=c1[nH]cc(F)c(=O)[nH]1 [fluorouracil] | 0.06 | 1.0% | 6.18 |  |  |  | 0.06 | 0.9% | 6.44 | −0.15 | −2.5% | 5.76 | −0.05 | −0.8% | 6.27 | 0.09 | 1.5% | 5.92 | CD46 expression diff (CD46 expression [1]; Biliary Cancer, Post minus Pre, unpaired biopsies, log2-transformed counts): 0.00; CD46 expression Percentage change (CD46 expression [1]; Biliary Cancer, post- vs pre-treatment unpaired biopsies): 0.0%; CD46 expression Post (CD46 expression [1]; Biliary Cancer, unpaired, RNA-seq log2-transformed normalized counts): 5.92; CD46 expression diff (CD46 expression [1]; Esophageal Cancer, Post minus Pre, unpaired biopsies, log2-transformed counts): −0.06; CD46 expression Percentage change (CD46 expression [1]; Esophageal Cancer, post- vs pre-treatment unpaired biopsies): −1.0%; CD46 expression Post (CD46 expression [1]; Esophageal Cancer, unpaired, RNA-seq log2-transformed normalized counts): 5.83; CD46 expression diff (CD46 expression [1]; Gastric Cancer, post minus pre, unpaired biopsies): −0.14; CD46 expression Percentage change (CD46 expression [1]; Gastric Cancer, post vs pre, unpaired biopsies): −2.4%; CD46 expression Post (CD46 expression [1]; Gastric Cancer, log2-transformed RNA-seq counts): 5.65; CD46 expression diff (CD46 expression [1]; Head and Neck Squamous Cell Carcinoma, Post minus Pre, unpaired biopsies, log2-transformed counts): 0.03; CD46 expression Percentage change (CD46 expression [1]; Head and Neck Squamous Cell Carcinoma, post- vs pre-treatment unpaired biopsies): 0.6%; CD46 expression Post (CD46 expression [1]; Head and Neck Squamous Cell Carcinoma, unpaired, RNA-seq log2-transformed normalized counts): 5.63; CD46 expression diff (post minus pre) (CD46 expression [2]; Esophageal Cancer): −0.31; Percent Change in CD46 expression (CD46 expression [2]; Esophageal Cancer): −5.2%; CD46 expression, Post-Treatment Biopsy (CD46 expression [2]; Esophageal Cancer): 5.60; CD46 expression diff (post minus pre) (CD46 expression [2]; Gastric Cancer): −0.09; Percent Change in CD46 expression (CD46 expression [2]; Gastric Cancer): −1.5%; CD46 expression, Post-Treatment Biopsy (CD46 expression [2]; Gastric Cancer): 5.66; subjects whose paired biopsies showed decreased CD46 expression (CD46 expression [2]; esophageal cancer, 10 of 13 subjects, FIG. 4): 77% |
